The supplement of paper PMC7214452

Assays:
Experiment in all cases: normalized area under the dose-response curve (viability relative to DMSO control) (fraction); higher = less sensitive (more viable cells)
Settings in all cases: exposure time not given
KMS18 (cancer type: MM) = system: KMS18 (cancer type: MM)
Method: (§1)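 25 myeloma and 15 non-Hodgkin lymphoma cell lines were exposed to each of 76 drugs as 7-point log dilutions (0.01 nM–10 µM) in duplicate. Viability was read with CellTiter-Glo and normalised to DMSO (0.1%) and staurosporine (10 µM) plate controls. Normalised AUC was calculated by the trapezoidal method relative to the negative control.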

[1] = system: OCI-MY7 (cancer type: MM)
Method: as §1

AMO1 (cancer type: MM) = system: AMO1 (cancer type: MM)
Method: as §1

[2] = system: NCI-H929 (cancer type: MM)
Method: as §1

KMS34 (cancer type: MM) = system: KMS34 (cancer type: MM)
Method: as §1

[3] = system: OCI-LY1 (cancer type: DLBCL)
Method: as §1

Se-Ax (cancer type: TCL) = system: Se-Ax (cancer type: TCL)
Method: as §1

[4] = system: SR-786 (cancer type: TCL)
Method: as §1

[5] = system: Granta-519 (cancer type: Mantle)
Method: as §1

[6] = system: JVM2 (cancer type: Mantle)
Method: as §1

My-La (cancer type: TCL) = system: My-La (cancer type: TCL)
Method: as §1

[7] = system: OCI-MY5/Vec (cancer type: MM)
Method: as §1

[8] = system: OCI-LY19 (cancer type: DLBCL)
Method: as §1

[9] = system: OCI-MY5 (cancer type: MM)
Method: as §1

OPM2 (cancer type: MM) = system: OPM2 (cancer type: MM)
Method: as §1

XG2 (cancer type: MM) = system: XG2 (cancer type: MM)
Method: as §1

[10] = system: KMS28BM (cancer type: MM)
Method: as §1

L363 (cancer type: MM) = system: L363 (cancer type: MM)
Method: as §1

KMS26 (cancer type: MM) = system: KMS26 (cancer type: MM)
Method: as §1

KMS11 (cancer type: MM) = system: KMS11 (cancer type: MM)
Method: as §1

[11] = system: HuT 78 (cancer type: TCL)
Method: as §1

[12] = system: Mino (cancer type: Mantle)
Method: as §1

[13] = system: OCI-MY5/CRBN (cancer type: MM)
Method: as §1

[14] = system: KMS28PE (cancer type: MM)
Method: as §1

JJN3 (cancer type: MM) = system: JJN3 (cancer type: MM)
Method: as §1

U266 (cancer type: MM) = system: U266 (cancer type: MM)
Method: as §1

LP1 (cancer type: MM) = system: LP1 (cancer type: MM)
Method: as §1

EJM (cancer type: MM) = system: EJM (cancer type: MM)
Method: as §1

[15] = system: KMS12PE (cancer type: MM)
Method: as §1

MM1.R (cancer type: MM) = system: MM1.R (cancer type: MM)
Method: as §1

MM1.S (cancer type: MM) = system: MM1.S (cancer type: MM)
Method: as §1

[16] = system: JeKo-1 (cancer type: Mantle)
Method: as §1

[17] = system: SU-DHL1 (cancer type: TCL)
Method: as §1

[18] = system: RPMI 8226 (cancer type: MM)
Method: as §1

FR4 (cancer type: MM) = system: FR4 (cancer type: MM)
Method: as §1

[19] = system: SU-DHL2 (cancer type: DLBCL)
Method: as §1

[20] = system: OCI-LY3 (cancer type: DLBCL)
Method: as §1

[21] = system: Karpas-299 (cancer type: TCL)
Method: as §1

[22] = system: SU-DHL6 (cancer type: DLBCL)
Method: as §1

SKMM2 (cancer type: MM) = system: SKMM2 (cancer type: MM)
Method: as §1

Question: How did the “normalized area under the dose-response curve” value (“normalized area” for short) (KMS18 (cancer type: MM)) turn out when Nc1cc(C(F)(F)F)c(-c2cc(N3CCOCC3)nc(N3CCOCC3)n2)cn1 [Buparlisib] was run?
Answer: 0.445

Question: What about the “normalized area” value [1] of the same compound?
Answer: 0.71

Question: And the “normalized area” value (AMO1 (cancer type: MM))?
Answer: 0.424

Question: What about the “normalized area” value [2] of the same compound?
Answer: 0.3

Question: What about the “normalized area” value (KMS34 (cancer type: MM)) of the same compound?
Answer: 0.165

Question: What about the “normalized area” value [3] of the same compound?
Answer: 0.562

Question: What about the “normalized area” value (Se-Ax (cancer type: TCL)) of the same compound?
Answer: 0.431

Question: What about the “normalized area” value [4] of the same compound?
Answer: 0.473

Question: And the “normalized area” value [5]?
Answer: 0.493

Question: And the “normalized area” value [6]?
Answer: 0.497

Question: And the “normalized area” value (My-La (cancer type: TCL))?
Answer: 0.627

Question: What about the “normalized area” value [7] of the same compound?
Answer: 0.561

Question: What about the “normalized area” value [8] of the same compound?
Answer: 0.564

Question: And the “normalized area” value [9]?
Answer: 0.509

Question: What about the “normalized area” value (OPM2 (cancer type: MM)) of the same compound?
Answer: 0.392

Question: And the “normalized area” value (XG2 (cancer type: MM))?
Answer: 0.303

Question: What about the “normalized area” value [10] of the same compound?
Answer: 0.562

Question: What about the “normalized area” value (L363 (cancer type: MM)) of the same compound?
Answer: 0.414

Question: What about the “normalized area” value (KMS26 (cancer type: MM)) of the same compound?
Answer: 0.498

Question: What about the “normalized area” value (KMS11 (cancer type: MM)) of the same compound?
Answer: 0.477

Question: And the “normalized area” value [11]?
Answer: 0.348

Question: What about the “normalized area” value [12] of the same compound?
Answer: 0.516

Question: What about the “normalized area” value [13] of the same compound?
Answer: 0.605

Question: What about the “normalized area” value [14] of the same compound?
Answer: 0.38

Question: And the “normalized area” value (JJN3 (cancer type: MM))?
Answer: 0.55

Question: What about the “normalized area” value (U266 (cancer type: MM)) of the same compound?
Answer: 0.443

Question: What about the “normalized area” value (LP1 (cancer type: MM)) of the same compound?
Answer: 0.493

Question: What about the “normalized area” value (EJM (cancer type: MM)) of the same compound?
Answer: 0.654

Question: What about the “normalized area” value [15] of the same compound?
Answer: 0.55

Question: And the “normalized area” value (MM1.R (cancer type: MM))?
Answer: 0.28

Question: And the “normalized area” value (MM1.S (cancer type: MM))?
Answer: 0.3

Question: What about the “normalized area” value [16] of the same compound?
Answer: 0.365

Question: What about the “normalized area” value [17] of the same compound?
Answer: 0.375

Question: What about the “normalized area” value [18] of the same compound?
Answer: 0.358

Question: What about the “normalized area” value (FR4 (cancer type: MM)) of the same compound?
Answer: 0.454

Question: What about the “normalized area” value [19] of the same compound?
Answer: 0.689

Question: And the “normalized area” value [20]?
Answer: 0.571

Question: What about the “normalized area” value [21] of the same compound?
Answer: 0.513

Question: What about the “normalized area” value [22] of the same compound?
Answer: 0.685

Question: And the “normalized area” value (SKMM2 (cancer type: MM))?
Answer: 0.573

Question: Nc1cccc2c1CN(C1CCC(=O)NC1=O)C2=O (stereo not given) [Lenalidomide] was tested. Which “normalized area” value (KMS18 (cancer type: MM)) did it give?
Answer: 0.805

Question: And the “normalized area” value [1]?
Answer: 0.78

Question: What about the “normalized area” value (AMO1 (cancer type: MM)) of the same compound?
Answer: 0.799

Question: What about the “normalized area” value [2] of the same compound?
Answer: 0.74

Question: And the “normalized area” value (KMS34 (cancer type: MM))?
Answer: 0.662

Question: What about the “normalized area” value [3] of the same compound?
Answer: 0.825

Question: And the “normalized area” value (Se-Ax (cancer type: TCL))?
Answer: 0.709

Question: What about the “normalized area” value [4] of the same compound?
Answer: 0.992

Question: And the “normalized area” value [5]?
Answer: 0.891

Question: What about the “normalized area” value [6] of the same compound?
Answer: 0.657

Question: What about the “normalized area” value (My-La (cancer type: TCL)) of the same compound?
Answer: 0.944

Question: And the “normalized area” value [7]?
Answer: 0.999

Question: And the “normalized area” value [8]?
Answer: 0.758

Question: What about the “normalized area” value [9] of the same compound?
Answer: 0.786

Question: And the “normalized area” value (OPM2 (cancer type: MM))?
Answer: 0.846

Question: And the “normalized area” value (XG2 (cancer type: MM))?
Answer: 0.861

Question: What about the “normalized area” value [10] of the same compound?
Answer: 0.819

Question: What about the “normalized area” value (L363 (cancer type: MM)) of the same compound?
Answer: 0.785

Question: What about the “normalized area” value (KMS26 (cancer type: MM)) of the same compound?
Answer: 0.785

Question: What about the “normalized area” value (KMS11 (cancer type: MM)) of the same compound?
Answer: 0.758

Question: What about the “normalized area” value [11] of the same compound?
Answer: 0.828

Question: And the “normalized area” value [12]?
Answer: 0.897

Question: What about the “normalized area” value [13] of the same compound?
Answer: 0.928

Question: And the “normalized area” value [14]?
Answer: 0.899

Question: And the “normalized area” value (JJN3 (cancer type: MM))?
Answer: 0.822

Question: And the “normalized area” value (U266 (cancer type: MM))?
Answer: 0.858

Question: And the “normalized area” value (LP1 (cancer type: MM))?
Answer: 0.847

Question: And the “normalized area” value (EJM (cancer type: MM))?
Answer: 0.836

Question: What about the “normalized area” value [15] of the same compound?
Answer: 0.74

Question: And the “normalized area” value (MM1.R (cancer type: MM))?
Answer: 0.68

Question: And the “normalized area” value (MM1.S (cancer type: MM))?
Answer: 0.66

Question: And the “normalized area” value [16]?
Answer: 0.874

Question: And the “normalized area” value [17]?
Answer: 0.812

Question: And the “normalized area” value [18]?
Answer: 0.915

Question: What about the “normalized area” value (FR4 (cancer type: MM)) of the same compound?
Answer: 0.852

Question: What about the “normalized area” value [19] of the same compound?
Answer: 0.785

Question: What about the “normalized area” value [20] of the same compound?
Answer: 0.802

Question: And the “normalized area” value [21]?
Answer: 0.875

Question: And the “normalized area” value [22]?
Answer: 0.847

Question: And the “normalized area” value (SKMM2 (cancer type: MM))?
Answer: 0.874
